In general, melting point refers to the temperature, or range, at which the solid turns liquid. Turning to `NC(=O)C(CCC(=O)O)N1Cc2c(N)cccc2C1=O` (stereo not shown) [Example 5.2, 4-(4-Amino-1-oxo-1,3-dihydro-isoindol-2-yl)-4-carbamoyl-butyric acid], the melting point was 334 to 336 °C.

The values above are taken from patent US7816393B2, “Isoindoline compounds and methods of their use” (Celgene Corporation, priority 2008, dated 2010).
